{"source": "patent US20140357512A1", "about": "“HISTONE DEACETYLASE (HDAC) BIOMARKERS IN MULTIPLE MYELOMA” (priority 2013, published 2014)", "system": "human myeloma cell line MM.1S", "experiment": "SILAC acetylated-lysine peptide profiling, HDAC inhibitor vs DMSO (light/heavy ratio)", "format": "cell-based", "source_text": "An embodiment of the invention comprises utilizing the SILAC method in order to quantitate changes in protein expression between two or more populations of cells. The SILAC method is a technique based on mass spectrometry that detects differences in protein abundance among samples using non-radioactive isotopic labeling. The SILAC method is known in the art, and described in detail in Ong et al., “Stable Isotope Labeling by Amino Acids in Cell Culture, SILAC, as a Simple and Accurate Approach to Expression Proteomics”, Molecular & Cellular Proteomics, vol. 1, pp. 376-386 (2002), which is incorporated herein by reference in its entirety.\nBriefly, the SILAC method involves growing two populations of cells in cell culture. The first population of cells is grown in growth media containing normal amino acids (“normal media”). The second population of cells is grown in media lacking a standard essential amino acid (such as lysine), but is then supplemented with a non-radioactive, isotopically labeled form of that essential amino acid (such as lysine labeled with ^13C atoms, rather than normal ^12C atoms), which is called “heavy media”. When the two populations of cells are each growing in the medium, they incorporate the amino acids into all of their proteins. The growth of cells maintained in the heavy media is no different from that in normal media. All peptides containing the heavy amino acids are heavier than their normal counterparts. The cells from each of the two populations of cells are lysed. The lysates from each of the two cell populations are then combined. The combined cell lysates are then analyzed by mass spectrometry. Pairs of chemically identical peptides of different stable isotope composition can be differentiated in a mass spectrometer due to their difference in mass. The ratio of peak intensities in the mass spectrum for such peptide pairs reflects the abundance ratio for the two proteins.\nThis example describes SILAC studies that were performed to compare the effects of three different HDAC inhibitors (Compound A, Compound B, and tubastatin A) to a control on a human multiple myeloma cell line. The HDAC inhibitors were also compared amongst themselves to determine differences in their effects.\nA human myeloma cell line MM.1S was grown using either ^12C (light) or ^13C (heavy) lysine containing culture medium. The “heavy” cells were treated with DMSO as the control, and the “light” cells were treated with a single HDAC inhibitor at 37° C. for 6 hours. The heavy and light cells were lysed, and the lysates were mixed in 1:1 ratio and digested with the protease trypsin. The acetylated lysine containing peptides (due to the action of the HDAC inhibitor) in the digested peptide pool were captured by a non-specific anti-acetylated lysine antibody cocktail (the antibodies identify both light and heavy acetylated peptides), and subjected to mass spectrometry analysis in order to identify thousands of individual peptides.\nThousands of peptides were identified in pairs (^12C and ^13C) due to their known mass differences. The amino acid sequence and quantitative ratio (Light/Heavy) of a given peptide in two differentially treated cell lysates were then determined and annotated with their possible protein (gene) sources.\nAs stated above, three HDAC inhibitors (Compound A, Compound B, and Tubastatin A) were used. Thus, the SILAC method was performed three times, with a different HDAC inhibitor compared to a control each time. Accordingly, there are three pairs of quantitative data in the table below, i.e., Compound A:DMSO, Compound B:DMSO, and Tubastatin A:DMSO. A cut-off of 1.30 fold of change (increase or decrease) was then used to determine “changed” or “+” in the table, and any peptides with a fold of change less than 1.3 fold were determined to be “unchanged” or “0” in the table. Those peptides that were not identified were marked as “NA” in the table. […]"}
{"molecule": "O=C(NO)c1cnc(NC2(c3cccc(F)c3)CCCCC2)nc1", "note": "[Compound B, 2-((1-(3-fluorophenyl)cyclohexyl)amino)-N-hydroxypyrimidine-5-carboxamide]", "values": [{"measurement": "L/H ratio of acetylated peptide […](ac)SHR (SEQ ID NO: 56)", "setting": "IGLV2-14, IGLC2 [208], log 2 scale, drug vs DMSO", "value": 0.00}, {"measurement": "light to heavy ratio (L/H ratio) of acetylated peptide, log 2 scale", "setting": "IGQGYLIK(ac)DGK (SEQ ID NO: 249), 60S ribosomal protein L3 [294], SNORD43, RPL3", "value": 0.00}, {"measurement": "L/H ratio of acetylated peptide", "setting": "IIWHK(ac)FK (SEQ ID NO: 419), Isoform 1 of 39S ribosomal protein L47 mitochondrial [180], MRPL47", "value": "−0.73", "unit": "log 2"}, {"measurement": "light to heavy ratio (L/H ratio) of acetylated peptide, log 2 scale", "setting": "IMK(ac)DLDQCR (SEQ ID NO: 217), Protein S100-A10 [57], S100A10", "value": 0.00}, {"measurement": "L/H ratio of acetylated peptide", "setting": "IMK(ac)SEVLR (SEQ ID NO: 434), 26S protease regulatory subunit 6A [56], PSMC3", "value": 0.41, "unit": "log 2"}, {"measurement": "L/H ratio of acetylated peptide", "setting": "IMQK(ac)YGFR (SEQ ID NO: 440), Splicing factor 45 [245], RBM17", "value": "−0.50", "unit": "log 2"}, {"measurement": "light to heavy ratio (L/H ratio) of acetylated peptide, log 2 scale", "setting": "IQDK(ac)EGIPPDQQR (SEQ ID NO: 212), Ubiquitin-40S ribosomal protein S27a [33], RPS27A", "value": 0.00}, {"measurement": "L/H ratio of acetylated peptide", "setting": "IQFK(ac)QDDGTGPEK (SEQ ID NO: 412), Isoform 1 of Far upstream element-binding protein 2 [359], KHSRP", "value": 0.61, "unit": "log 2"}, {"measurement": "light to heavy ratio (L/H ratio) of acetylated peptide, log 2 scale", "setting": "ISK(ac)EVLAGR (SEQ ID NO: 167), Isoform Short of Heterogeneous nuclear ribonucleoprotein U [417], HNRNPU", "value": 0.00}, {"measurement": "L/H ratio of acetylated peptide", "setting": "IYHPNVDK(ac)LGR (SEQ ID NO: 462), Ubiquitin-conjugating enzyme E2 N [82], UBE2N", "value": "−0.70", "unit": "log 2"}, {"measurement": "light to heavy ratio (L/H ratio), log 2 scale, acetylated peptide LMK(ac)ICMNEDPAK (SEQ ID NO: 800)", "setting": "Integrin-linked protein kinase [426], gene ILK, drug:DMSO", "value": 0.00}, {"measurement": "light to heavy ratio (L/H ratio) of acetylated peptide HAHGDQYK(ac)ATDFVADR (SEQ ID NO: 574)", "setting": "Isocitrate dehydrogenase [NADP] mitochondrial [180], gene IDH2, inhibitor:DMSO", "value": 0.00, "unit": "log 2"}, {"measurement": "light to heavy ratio (L/H ratio) of acetylated peptide AGTFK(ac)MVFTPK (SEQ ID NO: 606)", "setting": "Isocitrate dehydrogenase [NADP] mitochondrial [193], gene IDH2, inhibitor:DMSO", "value": 0.00, "unit": "log 2"}, {"measurement": "light to heavy ratio (L/H ratio) of acetylated peptide TDFDKNK(ac)IWYEHR (SEQ ID NO: 555)", "setting": "Isocitrate dehydrogenase [NADP] mitochondrial [282], gene IDH2, inhibitor:DMSO", "value": 0.00, "unit": "log 2"}, {"measurement": "light to heavy ratio (L/H ratio) of acetylated peptide AVLIDK(ac)DQSPK (SEQ ID NO: 577)", "setting": "Isoform 1 of 3-hydroxyisobutyryl-CoA hydrolase mitochondrial [353], gene HIBCH, inhibitor:DMSO", "value": 0.00, "unit": "log 2"}, {"measurement": "light to heavy ratio (L/H ratio) of acetylated peptide […](ac)VVQER (SEQ ID NO: 318)", "setting": "Isoform 1 of 39S ribosomal protein L47 mitochondrial [144], MRPL47, drug:DMSO", "value": 0.00, "unit": "log 2"}, {"measurement": "light to heavy ratio (L/H ratio) of acetylated peptide ATVPK(ac)TEIR (SEQ ID NO: 272)", "setting": "Isoform 1 of 40S ribosomal protein S24 [37], RPS24, drug:DMSO", "value": 0.00, "unit": "log 2"}, {"measurement": "light to heavy ratio (L/H ratio) of acetylated peptide ISK(ac)EEAMR (SEQ ID NO: 299)", "setting": "Isoform 1 of 60S ribosomal protein L11 [159], RPL11, drug:DMSO", "value": 0.00, "unit": "log 2"}, {"measurement": "light to heavy ratio (L/H ratio) of acetylated peptide RPEILK(ac)QEIK (SEQ ID NO: 359)", "setting": "Isoform 1 of AP-2 complex subunit beta [318], AP2B1, drug:DMSO", "value": 0.57, "unit": "log 2"}, {"measurement": "light to heavy ratio (L/H ratio) of acetylated peptide […](ac)ANVAK (SEQ ID NO: 364)", "setting": "Isoform 1 of ATP synthase subunit d mitochondrial [58], ATP5H, drug:DMSO", "value": 0.48, "unit": "log 2"}, {"measurement": "light to heavy ratio (L/H ratio) of acetylated peptide VPVPEDK(ac)[…] (SEQ ID NO: 290)", "setting": "Isoform 1 of ATP synthase subunit d mitochondrial [85], ATP5H, drug:DMSO", "value": 0.00, "unit": "log 2"}, {"measurement": "light to heavy ratio (L/H ratio) of acetylated peptide GHCPPAPAK(ac)PMHPENK(ac)LTNHGK (SEQ ID NO: 366)", "setting": "Isoform 1 of B-cell CLL/lymphoma 9-like protein [36:43], BCL9L, drug:DMSO", "value": 0.63, "unit": "log 2"}, {"measurement": "light to heavy ratio (L/H ratio) of acetylated peptide VWNYK(ac)LR (SEQ ID NO: 593)", "setting": "Isoform 1 of Coatomer subunit alpha [81], gene COPA, inhibitor:DMSO", "value": 0.00, "unit": "log 2"}, {"measurement": "light to heavy ratio (L/H ratio) of acetylated peptide SLLK(ac)PFCAALLK (SEQ ID NO: 329)", "setting": "Isoform 1 of Cytoskeleton-associated protein 5 [438], CKAP5, drug:DMSO", "value": 0.48, "unit": "log 2"}, {"measurement": "light to heavy ratio (L/H ratio) of acetylated peptide ELEK(ac)VCNPIITK (SEQ ID NO: 612)", "setting": "Isoform 1 of Heat shock cognate 71 kDa protein [601], gene HSPA8, inhibitor:DMSO", "value": 0.00, "unit": "log 2"}, {"measurement": "light to heavy ratio (L/H ratio) of acetylated peptide DVSYQGGK(ac)SIK (SEQ ID NO: 571)", "setting": "Isoform 1 of Histone-lysine N-methyltransferase MLL3 [758], gene MLL3, inhibitor:DMSO", "value": 0.00, "unit": "log 2"}, {"measurement": "light to heavy ratio (L/H ratio) of acetylated peptide TLVLSDK(ac)HSPQK (SEQ ID NO: 523)", "setting": "Isoform 1 of Histone-lysine N-methyltransferase MLL3 [2809], gene MLL3, inhibitor:DMSO", "value": 0.00, "unit": "log 2"}, {"measurement": "light to heavy ratio (L/H ratio) of acetylated peptide LVAENK(ac)FGK (SEQ ID NO: 296)", "setting": "Isoform 1 of Hydroxyacyl-coenzyme A dehydrogenase mitochondrial [301], HADH, drug:DMSO", "value": 0.00, "unit": "log 2"}, {"measurement": "light to heavy ratio (L/H ratio) of acetylated peptide K(ac)[…] (SEQ ID NO: 316)", "setting": "Isoform 1 of L-lactate dehydrogenase A chain [318], LDHA, drug:DMSO", "value": 0.00, "unit": "log 2"}, {"measurement": "light to heavy ratio (L/H ratio) of acetylated peptide INK(ac)ALDK (SEQ ID NO: 344)", "setting": "Isoform 1 of Myosin-9 [435], MYH9, drug:DMSO", "value": 0.43, "unit": "log 2"}, {"measurement": "light to heavy ratio (L/H ratio) of acetylated peptide FYK(ac)[…] (SEQ ID NO: 596)", "setting": "Isoform 1 of N-alpha-acetyltransferase 50 NatE catalytic subunit [37], gene NAA50, inhibitor:DMSO", "value": 0.00, "unit": "log 2"}, {"measurement": "light to heavy ratio (L/H ratio), log 2 scale, acetylated peptide […](ac)SK (SEQ ID NO: 767)", "setting": "Isoform 1 of Peripherin [288], gene PRPH, drug:DMSO", "value": 0.00}]}
